In US20230295201A1 (Gilead Sciences, Inc., priority 2020, published 2023) one finds EC50 data, which are given here for eleven molecules.

Where two headings read alike, the source gives them in different places.

What all share (format): cell-based
The test system of one experiment is RSV A2. Description: RSV NHBE EC50 (RSV A2 antiviral assay in normal human bronchial epithelial cells). The note with it: NHBE cells, RSV A2, 4 days, read-out: RSV NHBE EC50. The method, then:
Normal human bronchial epithelial (NHBE) cells were purchased from Lonza (Walkersville, MD, Cat #CC-2540) and cultured in Bronchial Epithelial Growth Media (BEGM) (Lonza, Walkersville, MD, Cat #CC-3170). The cells were passaged 1-2 times per week to maintain <80% confluency. The NHBE cells were discarded after 6 passages in culture.
To conduct the RSV A2 antiviral assay, NHBE cells were plated in 96-well plates at a density of 7,500 cells per well in BEGM and allowed to attach overnight at 37° C. Following attachment, 100 μL of cell culture media was removed and 3-fold serially diluted compound was added using a Hewlett-Packard D300 Digital Dispenser. The final concentration of DMSO was normalized to 0.05%. Following compound addition, the NHBE cells were infected by the addition of 100 μL of RSV A2 at a titer of 1×10^4.5 tissue culture infectious doses/mL in BEGM and then incubated at 37° C. for 4 days. […] The mixtures were incubated for 10 minutes at 25° C., and the luminescence signal was quantified on an Envision luminescence plate reader.

The subject of the next experiment is DENV2 replicon. In words: DENV-2 Huh-7 Rep EC50 (replicon luminescence). As to conditions: read-out: DENV-2 Huh-7 Rep EC50. The method, then: In 384 well plates (Greiner, Cat #781091), compounds were acoustically transferred at 200 nl per well in a 8 compound (4 replicates) or 40 compound dose response format (3 replicates). For all plates tested, Balapiravir, GS-5734 and NITD008 were included as positive inhibition controls alongside 0% inhibition, DMSO-only negative control wells. Following compound addition, Huh-7 cells containing the DENV2 replicon construct were harvested following standard cell culture procedures and were adjusted to a concentration of 1.25E5 cells/mL in cell culture media composed of cDMEM without genticin. 40 μL of the cell stock was then added to each well for a final cell density of 5,000 cells/well. Cell and compound mixtures were incubated at 37° C./5% CO2 for 48 hours. Prior to harvesting cells, EnduRen Live Cell Substrate (Promega, Cat #E6481) was prepared by suspending 3.4 mg into 100 uL of DMSO to generate a 60 mM stock solution. The stock solution was then diluted 1:200 in pre-warmed cDMEM and 10 uL of this diluted solution was added to each well of the 384 well plates. Plates were then centrifuged at 500 rpm briefly and were placed on a plate shaker for 2 min. Following mixing, plates were incubated at […] for 1.5 hours prior to measuring luminescence on an Envision luminometer.

The subject of another experiment is RSV strain A2. In words: RSV HEp-2 EC50 (infectious cytopathic cell protection assay). The note with it: HEp-2 cells, RSV A2, 4 days, read-out: RSV HEp-2 EC50. The method, then:
Antiviral activity against RSV is determined using an infectious cytopathic cell protection assay in HEp-2 cells. In this assay, compounds inhibiting viral infection and/or replication produce a cytoprotective effect against the virus-induced cell killing that can be quantified using a cell viability reagent. The techniques used here are novel adaptations of methods described in published literature (Chapman et al., Antimicrob Agents Chemother. 2007, 51(9):3346-53.)
HEp-2 cells are obtained from ATCC (Manassas, VI) and maintained in MEM media supplemented with 10% fetal bovine serum and penicillin/streptomycin. Cells are passaged twice a week and kept at subconfluent stage. Commercial stock of RSV strain A2 (Advanced Biotechnologies, Columbia, MD) is titered before compound testing to determine the appropriate dilution of the virus stock that generates desirable cytopathic effect in HEp-2 cells.
For antiviral tests, HEp-2 cells are grown in large cell culture flasks to near confluency but not fully so. The compounds to be tested are prediluted in DMSO in 384-well compound dilution plates, either in an 8 or 40 sample per plate standardized dose response format. 3-fold serial dilution increments of each test compound are prepared in the plates and test samples are transferred via acoustic transfer apparatus (Echo, Labcyte) at 100 nL per well into cell culture assay 384-well plates. Each compound dilution is transferred in single or quadruplicate samples into dry assay plates, which are stored until assay is ready to go. The positive and negative controls are laid out in opposite on ends of the plate in vertical blocks (1 column).
Subsequently, an infectious mixture is prepared using an appropriate dilution of virus stock previously determined by titration with cells at a density of 50,000/ml and 20 µL/well is added to test plates w/compounds via automation (uFlow, Biotek). Each plate includes negative and positive controls (16 replicates each) to create 0% and 100% virus inhibition standards, respectively. Following the infection with RSV, testing plates are incubated for 4 days in a 37° C. cell culture incubator. After the incubation, a cell viability reagent, Cell TiterGlo (Promega, Madison, WI) is added to the assay plates, which are incubated briefly, and a luminescent readout is measured (Envision, Perkin Elmer) in all the assay plates. The RSV-induced cytopathic effect, percentage inhibition, is determined from the levels of remaining cell viability. […] Various potent anti-RSV tool compounds are used as positive controls for antiviral activity.

A further experiment concerns HRV16. Description: HRV16 HELA EC50 (cytopathic effect in H1-HeLa cells). The procedure:
H1-HeLa cells, cultured in complete DMEM medium containing 10% heat-inactivated FBS and 1% Penicillin/Streptomycin, were seeded in 96 well plates at 3000 cells/well one day prior to compound dosing and infection. The antiviral activity of each compound was measured in triplicate. Compounds were added directly to the cell cultures in serial 3-fold dilutions using the HP300 digital dispenser (Hewlett Packard, Palo Alto, CA) immediately prior to infection. The plates were transferred to BSL-2 containment and the appropriate dilution of virus stock, previously determined by titration and prepared in cell culture media, was added to test plates containing cells and serially diluted compounds. Each plate included 6 wells of infected untreated cells and 6 wells of uninfected cells that served as 0% and 100% virus inhibition control, respectively. Following the infection, test plates were incubated for 96 h in a tissue culture incubator set to 33° C./5% CO2. Following incubation, the H1-HeLa cells were removed from incubation and allowed to equilibrate to 25° C. Cell viability was determined by removing 100 μL of culture medium and adding 100 μL of Cell-Titer Glo viability reagent. The mixtures were incubated on a shaker for 10 minutes at 25° C., and the luminescence signal was quantified on an Envision luminescence plate reader.
On the technique in general: Cytopathic effects are the visible damage that an infection or toxin causes in cultured cells.

The mark [1] stands for this setting: human respiratory syncytial virus, 96 h.
The mark [2] stands for this setting: human respiratory syncytial virus, HEp-2, 96 h.
Where [3] appears, read: human respiratory syncytial virus, NHBE, 96 h.
The mark [4] stands for this setting: Dengue virus, DENV2, Huh-7, 48 h, Huh-7 replicon cells, 48 hours.

As to `CCC(CC)COC(=O)[C@H](C)NP(=O)(N[C@@H](C)C(=O)OC1CCCCC1)OC[C@@]1(C#N)O[C@@H](c2ccc3c(N)ncnn23)[C@H](O)[C@@H]1O` (mixture of isomers) [Example 30, cyclohexyl ((((2R,3S,4R,5S)-5-(4-aminopyrrolo[2,1-f][1,2,4]triazin-7-yl)-2-cyano-3,4-dihydroxytetrahydrofuran-2-yl)methoxy)(((S)-1-(2-ethylbutoxy)-1-oxopropan-2-yl)amino)phosphoryl)-L-alaninate], the EC50 (as a rule, the concentration that produces a half-maximal response) worked out at 0.044 µM with RSV A2 (setting [1]); 60.7 µM in the experiment on DENV2 replicon (Dengue virus, DENV2, Huh-7, 48 h); 0.844 µM in the experiment on RSV strain A2 (setting [1]).

For the molecule `C[C@H](NP(=O)(OC[C@@]1(C#N)O[C@@H](c2ccc3c(N)ncnn23)[C@H](O)[C@@H]1O)Oc1ccccc1)C(=O)O[C@@H]1CCOC1` (mixture of isomers) [Example 68, (R)-Tetrahydrofuran-3-yl ((((2R,3S,4R,5S)-5-(4-aminopyrrolo[2,1-f][1,2,4]triazin-7-yl)-2-cyano-3,4-dihydroxytetrahydrofuran-2-yl)methoxy)(phenoxy)phosphoryl)-L-alaninate], the EC50 in the experiment with HRV16 (96 h, H1-HeLa cells, 33° C., read-out: HRV16 HELA EC50) stood at 4.72 µM; in the experiment with RSV strain A2 (setting [2]), 0.247 µM.

For the molecule `C[C@H](NP(=O)(OC[C@@]1(C#N)O[C@@H](c2ccc3c(N)ncnn23)[C@H](O)[C@@H]1O)Oc1ccccc1)C(=O)OC1CCCCCCC1` (single isomer, unassigned) [Example 172], the EC50 in the experiment with RSV A2 (setting [3]) is greater than 0.516 µM; in the experiment with DENV2 replicon (setting [4]), 31.4 µM; in the experiment with RSV strain A2 it was 1.45 µM.

Take `C[C@H](NP(=O)(OC[C@@]1(C#N)O[C@@H](c2ccc3c(N)ncnn23)[C@H](O)[C@@H]1O)Oc1ccccc1)C(=O)OC1CCC(F)(F)CC1` (single isomer, unassigned) [Example 175]: the concentration for a half-maximal effect (EC50) with RSV A2 is 0.539 µM; with DENV2 replicon (Huh-7 replicon cells, 48 hours), greater than 100 µM; in the experiment on RSV strain A2 it was 0.801 µM.

Consider `CCC(CC)COC(=O)[C@H](C)NP(=O)(N[C@@H](C)C(=O)OC1CCCCC1)OC[C@@]1(C#N)O[C@@H](c2ccc3c(N)ncnn23)[C@H](O)[C@@H]1O` (single isomer, unassigned) [Example 228], for which the EC50 with RSV A2 is 2.04 µM; with HRV16 (H1-HeLa cells, 96 h, 33° C.; read-out: HRV16 HELA EC50), 4.71 µM.

Regarding `CC(C)OC(=O)[C@H](C)NP(=O)(OC[C@@]1(C#N)O[C@@H](c2ccc3c(N)ncnn23)[C@H](O)[C@@H]1O)Oc1ccc(C(=O)N(C)C)cc1` (stereo partly drawn) [Example 43, Isopropyl ((((2R,3S,4R,5S)-5-(4-aminopyrrolo[2,1-f][1,2,4]triazin-7-yl)-2-cyano-3,4-dihydroxytetrahydrofuran-2-yl)methoxy)(4-(dimethylcarbamoyl)phenoxy)phosphoryl)-L-alaninate], the concentration giving a half-maximal response (EC50) in the experiment with RSV A2 (setting [3]) is no less than 5 µM; in the experiment with DENV2 replicon (setting [4]), greater than 100 µM; in the experiment with RSV strain A2 (setting [2]) it was 55.3 µM.

As for `C[C@H](NP(=O)(O)OC[C@@]1(C#N)O[C@@H](c2ccc3c(N)ncnn23)[C@H](O)[C@@H]1O)C(=O)OC1CCCCC1` [Example 202, cyclohexyl ((((2R,3S,4R,5S)-5-(4-aminopyrrolo[2,1-f][1,2,4]triazin-7-yl)-2-cyano-3,4-dihydroxytetrahydrofuran-2-yl)methoxy)(hydroxy)phosphoryl)-L-alaninate], the half-maximal effective concentration (EC50) with RSV A2 (setting [1]) was greater than 2.95 µM; in the experiment with RSV strain A2 (setting [1]), 7.05 µM.

In the case of `C[C@H](NP(=O)(OC[C@@]1(C#N)O[C@@H](c2ccc3c(N)ncnn23)[C@H](O)[C@@H]1O)Oc1ccccc1)C(=O)OCC12CCN(CC1)CC2` (stereo partly drawn) [Example 213, quinuclidin-4-ylmethyl ((((2R,3S,4R,5S)-5-(4-aminopyrrolo[2,1-f][1,2,4]triazin-7-yl)-2-cyano-3,4-dihydroxytetrahydrofuran-2-yl)methoxy)(phenoxy)phosphoryl)-L-alaninate], the EC50 was greater than 5 µM in the experiment with RSV A2 (setting [3]), greater than 100 µM in the experiment with DENV2 replicon (setting [4]) and 3.84 µM in the experiment on RSV strain A2 (setting [2]).

Regarding `CCC(CC)COC(=O)CNP(=O)(NCC(=O)OCC(CC)CC)OC[C@@]1(C#N)O[C@@H](c2ccc3c(N)ncnn23)[C@H](O)[C@@H]1O` [Example 226, 2-Ethylbutyl ((((2R,3S,4R,5S)-5-(4-aminopyrrolo[2,1-f][1,2,4]triazin-7-yl)-2-cyano-3,4-dihydroxytetrahydrofuran-2-yl)methoxy)((2-(2-ethylbutoxy)-2-oxoethyl)amino)phosphoryl)glycinate], the half-maximal effective concentration (EC50) with RSV A2 (setting [1]) was 2.55 µM; in the experiment on RSV strain A2 (setting [1]) it was 1.91 µM.

For `C[C@H](NP(=O)(OC[C@@]1(C#N)O[C@@H](c2ccc3c(N)ncnn23)[C@H](O)[C@@H]1O)Oc1ccccc1)C(=O)OCC1CCCCC1` (stereo partly drawn) [Example 246, cyclohexylmethyl ((((2R,3S,4R,5S)-5-(4-aminopyrrolo[2,1-f][1,2,4]triazin-7-yl)-2-cyano-3,4-dihydroxytetrahydrofuran-2-yl)methoxy)(phenoxy)phosphoryl)-L-alaninate], the concentration giving a half-maximal response (EC50) with RSV A2 (setting [3]) is 0.041 µM; in the experiment with DENV2 replicon (setting [4]), 5.11 µM; in the experiment with RSV strain A2 (setting [2]), 0.035 µM.

Turning to `COC(=O)[C@H](C)NP(=O)(OC[C@@]1(C#N)O[C@@H](c2ccc3c(N)ncnn23)[C@H](O)[C@@H]1O)Oc1cccnc1` (stereo partly drawn) [Example 249, methyl ((((2R,3S,4R,5S)-5-(4-aminopyrrolo[2,1-f][1,2,4]triazin-7-yl)-2-cyano-3,4-dihydroxytetrahydrofuran-2-yl)methoxy)(pyridin-3-yloxy)phosphoryl)-L-alaninate], the EC50 in the experiment with RSV A2 (setting [3]) is no less than 5 µM; with DENV2 replicon (setting [4]), greater than 50 µM.
